Data reported in patent US6002023A, “2-debenzoyl-2-acyl taxol derivatives and method for making same” (Virginia Tech Intellectural Properties, Inc., priority 1997, dated 1999).

Experiments:
[1] = tested on: P-388 lymphocytic leukemia cells; test: cytotoxicity, cell culture assay using P-388 lymphocytic leukemia cells, compared with taxol; type: cell-based; conditions: for ED50 /ED50 (taxol): P-388 leukemia, value of less than 1 = more active than taxol; for antineoplastic activity relative to taxol, cell culture assay (P-388 leukemia in vitro): fold activity versus taxol; for biological activity as compared with taxol (in words): P-388 cell culture assay
Description: Acylation of 22 with various aromatic carboxylic acids in the presence of dicyclohexylcarbodiimide and 4-pyrrolidinopyridine has led to the preparation of various 2-debenzoyl-2-acyl taxols 13. […] For details of the cell culture assay, see Abbott, B. J., "Protocol 14 of Instruction 275," National Cancer Institute, National Institutes of Health, Jan. 24, 1978.

[2] = tested on: ovarian cancer and breast cancer; conditions: cited from earlier work
[3] = tested on: non-small cell lung cancer; conditions: preliminary studies; cited from earlier work

| SMILES | ED50 /ED50 (taxol) [1] | further results |
| --- | --- | --- |
| CC(=O)O[C@H]1C(=O)[C@@]2(C)[C@H]([C@H](OC(=O)c3cc(F)cc(F)c3)[C@]3(O)C[C@H](OC(=O)[C@H](O)[C@@H](NC(=O)c4ccccc4)c4ccccc4)C(C)=C1C3(C)C)[C@]1(OC(C)=O)CO[C@@H]1C[C@@H]2O [Compound 13t, 2-debenzoyl-2-(3,5-difluorobenzoyl)taxol] | 0.00004 | antineoplastic activity relative to taxol, cell culture assay (P-388 leukemia in vitro) [1]: 25,000 times; antineoplastic activity relative to taxol, cell culture assay (P-388 leukemia in vitro) ([1]; listed as drawing 14): about 25,000 times |
| CC(=O)O[C@H]1C(=O)[C@@]2(C)[C@H]([C@H](OC(=O)c3cccc(C(F)(F)F)c3)[C@]3(O)C[C@H](OC(=O)[C@H](O)[C@@H](NC(=O)c4ccccc4)c4ccccc4)C(C)=C1C3(C)C)[C@]1(OC(C)=O)CO[C@@H]1C[C@@H]2O [Compound 13i] | 15 | – |
| CC(=O)O[C@H]1C(=O)[C@@]2(C)[C@H]([C@H](OC(=O)c3cccc(N=[N+]=[N-])c3)[C@]3(O)C[C@H](OC(=O)[C@H](O)[C@@H](NC(=O)c4ccccc4)c4ccccc4)C(C)=C1C3(C)C)[C@]1(OC(C)=O)CO[C@@H]1C[C@@H]2O [Compound 13f, 2-debenzoyl-2-(m-azidobenzoyl)taxol] | 0.002 | biological activity as compared with taxol (in words) [1]: much greater biological activity than taxol; antineoplastic activity relative to taxol, cell culture assay (P-388 leukemia in vitro) [1]: 500 times |
| CC(=O)O[C@H]1C(=O)[C@@]2(C)[C@H]([C@H](OC(=O)c3ccc(C(C)=O)cc3)[C@]3(O)C[C@H](OC(=O)[C@H](O)[C@@H](NC(=O)c4ccccc4)c4ccccc4)C(C)=C1C3(C)C)[C@]1(OC(C)=O)CO[C@@H]1C[C@@H]2O [Compound 13ff] | 30 | – |
| CC(=O)O[C@H]1C(=O)[C@@]2(C)[C@H]([C@H](OC(=O)c3cccc(I)c3)[C@]3(O)C[C@H](OC(=O)[C@H](O)[C@@H](NC(=O)c4ccccc4)c4ccccc4)C(C)=C1C3(C)C)[C@]1(OC(C)=O)CO[C@@H]1C[C@@H]2O [Compound 13s] | 0.028 | – |
| CC(=O)O[C@H]1C(=O)[C@@]2(C)[C@H]([C@H](OC(=O)c3ccc(Cl)c(Cl)c3)[C@]3(O)C[C@H](OC(=O)[C@H](O)[C@@H](NC(=O)c4ccccc4)c4ccccc4)C(C)=C1C3(C)C)[C@]1(OC(C)=O)CO[C@@H]1C[C@@H]2O [Compound 13m] | 0.003 | – |
| CC(=O)O[C@H]1C(=O)[C@@]2(C)[C@H]([C@H](OC(C)=O)[C@]3(O)C[C@H](OC(=O)[C@H](O)[C@@H](NC(=O)c4ccccc4)c4ccccc4)C(C)=C1C3(C)C)[C@]1(OC(C)=O)CO[C@@H]1C[C@@H]2O [Compound 13w] | 28 | – |
| CSc1ccc(C(=O)O[C@H]2[C@@H]3[C@]4(OC(C)=O)CO[C@@H]4C[C@H](O)[C@@]3(C)C(=O)[C@H](OC(C)=O)C3=C(C)[C@@H](OC(=O)[C@H](O)[C@@H](NC(=O)c4ccccc4)c4ccccc4)C[C@]2(O)C3(C)C)cc1 [Compound 13cc] | 12 | – |
| CC(=O)O[C@H]1C(=O)[C@@]2(C)[C@H]([C@H](OC(=O)c3ccc(Cl)cc3)[C@]3(O)C[C@H](OC(=O)[C@H](O)[C@@H](NC(=O)c4ccccc4)c4ccccc4)C(C)=C1C3(C)C)[C@]1(OC(C)=O)CO[C@@H]1C[C@@H]2O [Compound 13bb] | 150 | – |
| COc1cccc(C(=O)O[C@H]2[C@@H]3[C@]4(OC(C)=O)CO[C@@H]4C[C@H](O)[C@@]3(C)C(=O)[C@H](OC(C)=O)C3=C(C)[C@@H](OC(=O)[C@H](O)[C@@H](NC(=O)c4ccccc4)c4ccccc4)C[C@]2(O)C3(C)C)c1 [Compound 13p] | 0.0004 | – |
| CC(=O)O[C@H]1C(=O)[C@@]2(C)[C@H]([C@H](OC(=O)c3cccc(C#N)c3)[C@]3(O)C[C@H](OC(=O)[C@H](O)[C@@H](NC(=O)c4ccccc4)c4ccccc4)C(C)=C1C3(C)C)[C@]1(OC(C)=O)CO[C@@H]1C[C@@H]2O [Compound 13h] | 0.25 | – |
| CC(=O)O[C@H]1C(=O)[C@@]2(C)[C@H]([C@H](OC(=O)c3cccc([N+](=O)[O-])c3)[C@]3(O)C[C@H](OC(=O)[C@H](O)[C@@H](NC(=O)c4ccccc4)c4ccccc4)C(C)=C1C3(C)C)[C@]1(OC(C)=O)CO[C@@H]1C[C@@H]2O [Compound 13c] | 0.3 | biological activity as compared with taxol (in words) [1]: much greater biological activity than taxol |
| CC(=O)O[C@H]1C(=O)[C@@]2(C)[C@H]([C@H](OC(=O)c3ccccc3Cl)[C@]3(O)C[C@H](OC(=O)[C@H](O)[C@@H](NC(=O)c4ccccc4)c4ccccc4)C(C)=C1C3(C)C)[C@]1(OC(C)=O)CO[C@@H]1C[C@@H]2O [Compound 13o] | 0.011 | biological activity as compared with taxol (in words) [1]: increased bioactivity as compared with taxol |
| CC(=O)O[C@H]1C(=O)[C@@]2(C)[C@H]([C@H](OC(=O)c3ccc([N+](=O)[O-])cc3)[C@]3(O)C[C@H](OC(=O)[C@H](O)[C@@H](NC(=O)c4ccccc4)c4ccccc4)C(C)=C1C3(C)C)[C@]1(OC(C)=O)CO[C@@H]1C[C@@H]2O [Compound 13dd] | 8.3 | – |
| CC(=O)O[C@H]1C(=O)[C@@]2(C)[C@H]([C@H](OC(=O)c3ccoc3)[C@]3(O)C[C@H](OC(=O)[C@H](O)[C@@H](NC(=O)c4ccccc4)c4ccccc4)C(C)=C1C3(C)C)[C@]1(OC(C)=O)CO[C@@H]1C[C@@H]2O [Compound 13v] | 1.4 | – |
| CC(=O)O[C@H]1C(=O)[C@@]2(C)[C@H]([C@H](OC(=O)c3ccc4ccccc4c3)[C@]3(O)C[C@H](OC(=O)[C@H](O)[C@@H](NC(=O)c4ccccc4)c4ccccc4)C(C)=C1C3(C)C)[C@]1(OC(C)=O)CO[C@@H]1C[C@@H]2O [Compound 13u] | 10 | – |
| CC(=O)O[C@H]1C(=O)[C@@]2(C)[C@H]([C@H](OC(=O)c3ccc(C(F)(F)F)cc3)[C@]3(O)C[C@H](OC(=O)[C@H](O)[C@@H](NC(=O)c4ccccc4)c4ccccc4)C(C)=C1C3(C)C)[C@]1(OC(C)=O)CO[C@@H]1C[C@@H]2O [Compound 13ee] | 30 | – |
| COc1cc(C(=O)O[C@H]2[C@@H]3[C@]4(OC(C)=O)CO[C@@H]4C[C@H](O)[C@@]3(C)C(=O)[C@H](OC(C)=O)C3=C(C)[C@@H](OC(=O)[C@H](O)[C@@H](NC(=O)c4ccccc4)c4ccccc4)C[C@]2(O)C3(C)C)cc(OC)c1OC [Compound 13g] | 0.5 | – |
| CC(=O)OC1C(=O)C2(C)C(O)CC3OCC3(OC(C)=O)C2C(OC(=O)c2cc([N+](=O)[O-])cc([N+](=O)[O-])c2)C2(O)CC(OC(=O)C(O)C(NC(=O)c3ccccc3)c3ccccc3)C(C)=C1C2(C)C (stereo not drawn) [Compound 13e] | 2.0 | – |
| CC(=O)O[C@H]1C(=O)[C@@]2(C)[C@H]([C@H](OC(=O)COc3ccccc3)[C@]3(O)C[C@H](OC(=O)[C@H](O)[C@@H](NC(=O)c4ccccc4)c4ccccc4)C(C)=C1C3(C)C)[C@]1(OC(C)=O)CO[C@@H]1C[C@@H]2O [Compound 13x] | 0.7 | – |
| CC(=O)OC1C(=O)C2(C)C(O)CC3OCC3(OC(C)=O)C2C(OC(=O)c2cccc(Cl)c2)C2(O)CC(OC(=O)C(O)C(NC(=O)c3ccccc3)c3ccccc3)C(C)=C1C2(C)C (stereo not drawn) [Compound 13d] | 0.1 | biological activity as compared with taxol (in words) [1]: much greater biological activity than taxol |
| CC(=O)O[C@H]1C(=O)[C@@]2(C)[C@H]([C@H](OC(=O)c3ccc(C#N)cc3)[C@]3(O)C[C@H](OC(=O)[C@H](O)[C@@H](NC(=O)c4ccccc4)c4ccccc4)C(C)=C1C3(C)C)[C@]1(OC(C)=O)CO[C@@H]1C[C@@H]2O [Compound 13aa] | 30 | – |
| CC(=O)O[C@H]1C(=O)[C@@]2(C)[C@H]([C@H](OC(=O)c3cccc(F)c3)[C@]3(O)C[C@H](OC(=O)[C@H](O)[C@@H](NC(=O)c4ccccc4)c4ccccc4)C(C)=C1C3(C)C)[C@]1(OC(C)=O)CO[C@@H]1C[C@@H]2O [Compound 13j] | 0.35 | – |
| CC(=O)O[C@H]1C(=O)[C@@]2(C)[C@H]([C@H](OC(=O)c3ccc(F)cc3)[C@]3(O)C[C@H](OC(=O)[C@H](O)[C@@H](NC(=O)c4ccccc4)c4ccccc4)C(C)=C1C3(C)C)[C@]1(OC(C)=O)CO[C@@H]1C[C@@H]2O [Compound 13y] | 0.5 | – |
| CC(=O)O[C@H]1C(=O)[C@@]2(C)[C@H]([C@H](OC(=O)c3ccccc3)[C@]3(O)C[C@H](OC(=O)[C@H](O)[C@@H](NC(=O)c4ccccc4)c4ccccc4)C(C)=C1C3(C)C)[C@]1(OC(C)=O)CO[C@@H]1C[C@@H]2O [Taxol] | – | clinical activity [2]: excellent clinical activity; clinical activity [3]: good activity |
| CC(=O)O[C@H]1C(=O)[C@@]2(C)[C@H]([C@H](OC(=O)c3cccc(C)c3)[C@]3(O)C[C@H](OC(=O)[C@H](O)[C@@H](NC(=O)c4ccccc4)c4ccccc4)C(C)=C1C3(C)C)[C@]1(OC(C)=O)CO[C@@H]1C[C@@H]2O [Compound 13n] | 0.04 | – |
| CC(=O)O[C@H]1C(=O)[C@@]2(C)[C@H]([C@H](OC(=O)c3cccc(Oc4ccccc4)c3)[C@]3(O)C[C@H](OC(=O)[C@H](O)[C@@H](NC(=O)c4ccccc4)c4ccccc4)C(C)=C1C3(C)C)[C@]1(OC(C)=O)CO[C@@H]1C[C@@H]2O [Compound 13r] | 4.3 | – |
| CC(=O)O[C@H]1C(=O)[C@@]2(C)[C@H]([C@H](OC(=O)c3cccc(N)c3)[C@]3(O)C[C@H](OC(=O)[C@H](O)[C@@H](NC(=O)c4ccccc4)c4ccccc4)C(C)=C1C3(C)C)[C@]1(OC(C)=O)CO[C@@H]1C[C@@H]2O [Compound 13a] | 1500 | – |
| CC(=O)OC1C(=O)C2(C)C(O)CC3OCC3(OC(C)=O)C2C(OC(=O)c2cccs2)C2(O)CC(OC(=O)C(O)C(NC(=O)c3ccccc3)c3ccccc3)C(C)=C1C2(C)C (stereo not drawn) [Compound 13k] | 10 | – |
| CC(=O)O[C@H]1C(=O)[C@@]2(C)[C@H]([C@H](OC(=O)/C=C/c3ccccc3)[C@]3(O)C[C@H](OC(=O)[C@H](O)[C@@H](NC(=O)c4ccccc4)c4ccccc4)C(C)=C1C3(C)C)[C@]1(OC(C)=O)CO[C@@H]1C[C@@H]2O [Compound 13b] | 10 | biological activity as compared with taxol (in words) [1]: less active or about as active as taxol |
